What all share (type): in vivo
The test system of one assay is human IgE. Description: Treatment experiment, dogs artificially sensitized with Dermatophagoides farinae: IgG antibody against human IgE (ELISA). To be noted: beagles artificially sensitized with Dermatophagoides farinae, s.c. 1 mg five times. The procedure: Human IgE (Athens Research And Technology, Inc.; IgE, human Myeloma Plasma) was prepared at 1 μg/mL in an immobilization buffer (0.05 M carbonate buffer, pH 9.6), then added at a concentration of 100 μL/well to an ELISA plate, and left overnight at 4° C. The immobilization plate was washed once with PBS-T (0.05%). A blocking solution (4× Block Ace, Snow Brand Milk Products Co., Ltd.; UK-B80) was added thereto at a concentration of 200 μL/well. The plate was blocked by incubation at 37° C. for 1.5 hours. The serum was diluted 1000-fold with a diluent (PBS-T:Block Ace=9:1) and used. The plate was reacted with the serum at 37° C. for 1.5 hours and washed three times with PBS-T (0.05%). An anti-dog IgG antibody (Sheep anti-Dog IgG HRP, Bethyl Laboratories, Inc.; A40-118P) was diluted 2000-fold with a diluent and added thereto as a secondary antibody at a concentration of 100 μL/well. After reaction at 37° C. for 1.5 hours, the plate was washed three times with PBS-T (0.05%). […] Then, the measurement was performed using a plate reader (Bio-Rad Laboratories, Inc.; model 680) (dual: measurement: 450 nm, control: 570 nm). […]
Evaluation: serum was collected, and an IgG antibody against human IgE was assayed by ELISA. […] The IgE antibody against Dermatophagoides farinae was evaluated by ELISA. […]
For orientation: An ELISA detects its analyte on a solid surface through an enzyme-linked reagent.

A further assay relates to cat IgE. Description: Reactivity of serum of peptide-immunized rabbit with cat IgE recombinant CH3 (ELISA). To be noted: 500 μg peptide + complete adjuvant s.c. The procedure:
(§1) 2 mL of the 250 μg/mL peptide (a total of 500 μg) used in Example 2 was mixed with an equal amount of a complete adjuvant (a total of 4 mL). Each rabbit was immunized with this mixture by the subcutaneous administration (amount of the peptide: 500 μg) at day 0 and weeks 2, 4, 6, and 8. Blood was collected 5 weeks after the week-8 administration (week 13 counted from day 0). Booster immunization was performed at week 14 counted from day 0, and blood was further collected 2 weeks thereafter (week 16 counted from day 0). Antibody titers in the collected blood were measured by ELISA. The serum of a rabbit that received no peptide was used as a control.
(§2) ELISA was performed by the following method: each […] recombinant CH3 solution of dog IgE, human IgE, mouse IgE, dog IgG, and cat IgE was immobilized at a concentration of 100 μL/well (100 ng/well) to a plate. The serum collected from the immunized rabbit was used (×200 to ×102400) as a primary antibody. An enzyme-labeled anti-rabbit IgG antibody (Zymed Laboratories Inc.) was used as a secondary antibody.

The test system of the next assay is mouse IgE. As to the kind of experiment: Reactivity of serum of peptide-immunized rabbit with mouse IgE (ELISA). To be noted: 500 μg peptide + complete adjuvant s.c. As for the experimental part:
as §1, §2

These results are taken from patent publication US9657071B2, “IgE peptide vaccine” (NIPPON ZENYAKU KOGYO CO., LTD., priority 2012, dated 2017).

For the sequence “KKTSVSASQWYTKHHNNATT (listed as Mus musculus) [M4-7-11]”, the “level of the IgG antibody against IgE” value in the assay on human IgE is given as “confirmed to elevate”. Turning to “QEKKTSVSASQWYTKHHNNATTSIT (listed as Mus musculus) [MOUSE CH3-4-17-11]”, the “response of immobilized cat IgE to peptide-administered rabbit serum” value in the assay with cat IgE is “responded”. The “response of immobilized mouse IgE to peptide-administered rabbit serum” value with mouse IgE is recorded as “responded”.
